In US10081647B2, “Phosphate substituted quinolizine derivatives useful as HIV integrase inhibitors” (Merck Sharp & Dohme Corp., priority 2015, dated 2018):
Where two headings read alike, the source gives them in different places.

Tested on: HIV-1 (NL4-3 strain)
Assay: Assay for inhibition of HIV replication (MT4-gag-GFP reporter cell line, kinetic assay)
Type: cell-based
Conditions: IP from 4-parameter dose response curve
Description: This assay is useful for assessing the ability of a compound of the present inventiongin to inhibit HIV replication. The assay is a kinetic assay that employs a reporter cell line (MT4-gag-GFP) to quantify the number of new cells infected in each round of replication.
MT4-GFP cells (250,000 cells/ml) are bulk-infected with HIV-1 (NL4-3 strain) at low multiplicity of infection (MOI) in RPMI+10% FBS for 24 hours. Cells are then washed once in RPMI+10% FBS and resuspended in RPMI+0% or 10% or 100% normal human serum (NHS). Test compounds are serial-diluted in DMSO using an ECHO liquid handler. The infected MT4-GFP cells are added to a 384-well poly-D-lysine coated black plate with clear bottom in which the diluted test compounds are placed. The cells are seeded at 8,000 cells per well and the final DMSO concentration is adjusted to 0.4%. The infected cells (Green GFP cells) are then quantified at both 24 and 48 hours post incubation using Acumen eX3. Viral reproductive ratio (R0) is determined using the number of infected cells at 48 hours divided by the number of infected cells at 24 hours. Percent viral growth inhibition is calculated by [1−(R−Rtripledrug)/(RDMSO−Rtripledrug)]*100. Compound potency IP or IC50 can be determined using a 4-parameter dose response curve analysis.

[1] = infected MT4-GFP cells in 100% normal human serum, read-out: WILD TYPE CELL ASSAY Viking IP (100% NHS)
[2] = infected MT4-GFP cells in RPMI + 0% normal human serum, read-out: WILD TYPE CELL ASSAY Viking IP (0% NHS)
[3] = Human immunodeficiency virus 1, NL43, infected MT4-GFP cells in RPMI + 0% normal human serum, read-out: WILD TYPE CELL ASSAY Viking IP (0% NHS)

| Structure (SMILES) | IC50 [1] [nM] | IC50 [2] [nM] | IC50 [3] [nM] | IC50 (Human immunodeficiency virus 1, NL43, infected MT4-GFP cells in 100% normal human serum, read-out: WILD TYPE CELL ASSAY Viking IP (100% NHS)) [nM] |
| --- | --- | --- | --- | --- |
| COCCC1(C)C(=O)c2c(O)c(=O)c(C(=O)NCc3ccc(F)cc3F)cn2CC1OCCP(=O)(O)O (centres unmarked) [Compound 84] | 2930 | 492 | – | – |
| COCCC1(C)C(=O)c2c(O)c(=O)c(C(=O)NCc3ccc(F)cc3F)cn2CC1OCCP(=O)(OCOC(=O)OC(C)C)OCOC(=O)OC(C)C (centres unmarked) [Compound 85] | 7.7 | 0.291 | – | – |
| COCCC1(C)C(=O)c2c(O)c(=O)c(C(=O)NCc3ccc(F)cc3F)cn2CC1OCCP(=O)(OCOC(=O)OC(C)C)OCOC(=O)OC(C)C (centres unmarked) [Compound 86] | 980 | 3.5 | – | – |
| COCCC1(C)C(=O)c2c(O)c(=O)c(C(=O)NCc3ccc(F)cc3F)cn2CC1OCCP(=O)(OCOC(=O)OC(C)C)OCOC(=O)OC(C)C (centres unmarked) [Compound 87] | 21 | 0.8 | – | – |
| COCCC1(C)C(=O)c2c(O)c(=O)c(C(=O)NCc3ccc(F)cc3F)cn2CC1OCCP(=O)(OCOC(=O)OC(C)C)OCOC(=O)OC(C)C (centres unmarked) [Compound 88] | 29 | 0.9 | – | – |
| CCOP(=O)(CCCOC1Cn2cc(C(=O)NCc3ccc(F)cc3F)c(=O)c(O)c2C(=O)C1(C)CCOC)OCC (centres unmarked) [Compound 89] | 211 | 15 | – | – |
| CCOP(=O)(CCCOC1Cn2cc(C(=O)NCc3ccc(F)cc3F)c(=O)c(O)c2C(=O)C1(C)CCOC)OCC (centres unmarked) [Compound 90] | 123 | 15 | – | – |
| CCOP(=O)(CCCOC1Cn2cc(C(=O)NCc3ccc(F)cc3F)c(=O)c(O)c2C(=O)C1(C)CCOC)OCC (centres unmarked) [Compound 91] | 600 | 31 | – | – |
| CCOP(=O)(CCCOC1Cn2cc(C(=O)NCc3ccc(F)cc3F)c(=O)c(O)c2C(=O)C1(C)CCOC)OCC (centres unmarked) [Compound 92] | 2320 | 143 | – | – |
| CCOP(=O)(CCNC1Cn2cc(C(=O)NCc3ccc(F)cc3F)c(=O)c(O)c2C(=O)C1(C)C)OCC (centres unmarked) [Compound 101] | 891 | – | 50 | – |
| CCOP(=O)(CCNC1Cn2cc(C(=O)NCc3ccc(F)cc3F)c(=O)c(O)c2C(=O)C1(C)C)OCC (centres unmarked) [Compound 102] | 150 | 25 | – | – |
| CCOP(=O)(CCCNC1Cn2cc(C(=O)NCc3ccc(F)cc3F)c(=O)c(O)c2C(=O)C1(C)C)OCC (centres unmarked) [Compound 105] | 628 | 15 | – | – |
| CCOP(=O)(CCCNC1Cn2cc(C(=O)NCc3ccc(F)cc3F)c(=O)c(O)c2C(=O)C1(C)C)OCC (centres unmarked) [Compound 106] | 95 | 3.6 | – | – |
| CC1(C)C(=O)c2c(O)c(=O)c(C(=O)NCc3ccc(F)cc3F)cn2CC1NCCCP(=O)(O)O (centres unmarked) [Compound 108] | – | – | 95 | 1260 |
| CC(C)OC(=O)OCOP(=O)(CCCNC1Cn2cc(C(=O)NCc3ccc(F)cc3F)c(=O)c(O)c2C(=O)C1(C)C)OCOC(=O)OC(C)C (centres unmarked) [Compound 109] | 3520 | 38 | – | – |
| CC(C)OC(=O)OCOP(=O)(CCCNC1Cn2cc(C(=O)NCc3ccc(F)cc3F)c(=O)c(O)c2C(=O)C1(C)C)OCOC(=O)OC(C)C (centres unmarked) [Compound 110] | 154 | 8.8 | – | – |
